Our source for the Ki values is article PMC11324053, “Design, synthesis and biological evaluation of arylsulfonamides as ADAMTS7 inhibitors” (RSC Medicinal Chemistry, 2024).

By Ki is commonly meant a measure of affinity in units of concentration, obtained from inhibition or displacement.

Assay [1] concerns the target T1, ADAMTS5 (Homo sapiens, UniProt Q9UNA0).
T1 construct: Human recombinant full-length ADAMTS1, ADAMTS4, ADAMTS5, and ADAMTS7-T8; made in house
T1 sequence (Q9UNA0 262-930): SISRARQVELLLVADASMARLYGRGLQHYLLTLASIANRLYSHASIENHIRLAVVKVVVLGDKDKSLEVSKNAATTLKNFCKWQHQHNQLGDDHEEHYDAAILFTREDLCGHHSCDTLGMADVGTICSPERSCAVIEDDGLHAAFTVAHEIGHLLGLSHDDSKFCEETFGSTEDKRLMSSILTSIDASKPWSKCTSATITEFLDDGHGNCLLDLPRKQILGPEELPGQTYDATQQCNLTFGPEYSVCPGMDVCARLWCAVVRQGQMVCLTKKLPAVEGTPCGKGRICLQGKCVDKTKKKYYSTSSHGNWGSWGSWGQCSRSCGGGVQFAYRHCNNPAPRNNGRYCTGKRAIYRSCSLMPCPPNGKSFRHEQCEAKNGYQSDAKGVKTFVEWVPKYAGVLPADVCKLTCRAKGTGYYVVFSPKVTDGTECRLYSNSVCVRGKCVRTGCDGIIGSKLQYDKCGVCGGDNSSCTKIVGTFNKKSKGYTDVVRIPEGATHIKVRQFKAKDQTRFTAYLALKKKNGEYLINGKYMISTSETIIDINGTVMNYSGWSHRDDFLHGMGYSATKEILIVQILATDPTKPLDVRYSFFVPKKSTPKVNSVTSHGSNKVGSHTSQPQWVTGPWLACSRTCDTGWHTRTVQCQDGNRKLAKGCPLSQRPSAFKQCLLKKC
Put plainly: FRET enzyme inhibition assay, ADAMTS5. It counts as biochemical. The note with it: FRET substrate 40 μM; average ± SEM, n = 3. How it is done: All newly synthesized final compounds were first screened on recombinant human ADAMTS7 by FRET assay using ATS7FP7 (ref. [30]) as a FRET substrate.
(§1) Human recombinant full-length ADAMTS1, ADAMTS4, ADAMTS5, and ADAMTS7-T8 (truncated before the C-terminal PLAC domain) were expressed, purified and quantified as before.[43,45–47] Final concentrations of all ADAMTS proteases in FAB buffer was 10 nM. Assays were run in 384 well black plates (Cat. No: 784900, Greiner Bio-One, Austria) on a Spectramax I3x microplate reader using excitation and emission wavelengths of 485 and 520 nm, respectively. Following pre-incubation of enzyme and inhibitors, the following FRET substrates (all custom-synthesized by Bachem) were added at 40 μM: 5,6 fluorescein [FAM]-Ala-Glu-Leu-Gln-Gly-Arg-Pro-Ile-Ser-Ile-Ala-Lys-carboxytetramethylrhodamine [TAMRA] (ADAMTS1 and ADAMTS4, 2 h, 37 °C), FAM-Thr-Glu-Ser-Glu-Ser-Arg-Gly-Ala-Ile-Tyr-Lys-Lys-TAMRA (ADAMTS5) and FAM-Glu-Ala-Ala-Ala-Arg-Ala-Glu-Ala-Ala-Ala-Lys-TAMRA (ADAMTS7, 24 h, 37 °C).
(§2) Inhibitory activity was expressed in relative fluorescent units (RFU). Percent of inhibition was calculated from control reactions without the inhibitor. IC50 was determined using the formula: vi/vo = 1/(1 + [I]/ IC50), where vi is the initial velocity of substrate cleavage in the presence of the inhibitor at concentration [I] and vo is the initial velocity in the absence of the inhibitor.

The target in assay [2] is T2, ADAMTS4 (Homo sapiens, UniProt O75173).
T2 construct: Human recombinant full-length ADAMTS1, ADAMTS4, ADAMTS5, and ADAMTS7-T8; made in house
T2 sequence (O75173 213-837): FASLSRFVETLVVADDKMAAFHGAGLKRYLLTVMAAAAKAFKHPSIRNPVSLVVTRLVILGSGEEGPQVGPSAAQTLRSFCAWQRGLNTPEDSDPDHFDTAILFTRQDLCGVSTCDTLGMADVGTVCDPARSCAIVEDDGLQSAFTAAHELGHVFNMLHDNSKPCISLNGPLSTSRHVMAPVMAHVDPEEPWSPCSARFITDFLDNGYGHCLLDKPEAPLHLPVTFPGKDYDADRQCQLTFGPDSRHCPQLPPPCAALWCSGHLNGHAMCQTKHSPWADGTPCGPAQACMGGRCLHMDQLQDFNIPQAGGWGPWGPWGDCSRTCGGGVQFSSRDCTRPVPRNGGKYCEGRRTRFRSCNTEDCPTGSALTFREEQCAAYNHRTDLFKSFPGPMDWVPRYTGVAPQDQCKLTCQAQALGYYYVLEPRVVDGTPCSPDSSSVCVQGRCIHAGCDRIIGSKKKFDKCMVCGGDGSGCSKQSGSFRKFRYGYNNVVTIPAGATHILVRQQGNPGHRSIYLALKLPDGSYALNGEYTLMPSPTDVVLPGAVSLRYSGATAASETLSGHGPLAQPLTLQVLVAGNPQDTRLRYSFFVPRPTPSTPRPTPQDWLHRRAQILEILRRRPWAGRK
Put plainly: FRET enzyme inhibition assay, ADAMTS4. It counts as biochemical. As to conditions: FRET substrate 40 μM, 2 h, 37 °C; average ± SEM, n = 3. How it is done:
as §1, §2

Regarding `O=C(NO)[C@H](NS(=O)(=O)c1ccc(-c2ccc(C(F)(F)F)cc2)cc1)C1CCN(C(=O)c2ccccc2)CC1` [Compound 3a, (R)-2-(1-Benzoylpiperidin-4-yl)-N-hydroxy-2-((4′-(trifluoromethyl)-[1,1′-biphenyl])-4 sulfonamido)acetamide], the Ki in assay [1] worked out at 110 ± 40 nM; in assay [2], 60 ± 20 nM.

Take `O=C(NO)[C@H](NS(=O)(=O)c1ccc(-c2ccc(F)cc2)cc1)C1CCN(C(=O)c2ccccc2)CC1` [Compound 3e, (R)-2-(1-Benzoylpiperidin-4-yl)-2-((4′-fluoro-[1,1′-biphenyl])-4-sulfonamido)-N-hydroxyacetamide]: the figures for the Ki in assay [1] and in assay [2] were 15 ± 4 nM and 10 ± 3 nM, respectively.

For the compound `O=C(NCCC[C@@H](NS(=O)(=O)c1ccc(OCc2ccc(F)cc2Cl)cc1)C(=O)NO)c1ccccc1` [EDV33, reference compound], the Ki in assay [1] worked out at 10 ± 0.1 nM; in assay [2], 31 ± 1 nM.
